Experiments:
[1] = system: rat C3; experiment: C3 consumption in rats in vivo, PS-C3 method in hirudinized plasma samples; details: 12.5 U/kg CVF
Description: Male Wistar rats (340-480 g) were anesthetized i.p. by Na-pentobarbital (Nembutal, 50 mg/kg) or thiobutabarbital (lnactin, 120 mg/kg). The left femoral artery and vein, left carotid artery, and right jugular vein were cannulated. Rats were anticoagualated with lepirudin (Refludan, 5 mg/kg), then injected i.v. with the C activator liposomes, Doxil and Ambisome. Blood samples were collected from the carotid artery at start (time 0) and at 1-3-5-10-30 min postinjection.
Similar experiments as described in Example 7, except that the rats were injected with 10 mg/kg zymosan or 12.5 U/kg CVF.
Similar experiments as described in Example 11, except that C activation was measured by Quidel's human SC5b-9 (A) and C3a kits (B). Rats were injected with 12.5 U/kg CVF.

[2] = system: C activation in dog serum; experiment: Complement activation by different activators in dog serum, pan-species C3 method; assay type: biochemical; details: SC5b-9 ELISA to determine SC5b-9
Description: Methods • The sera that were not of commercial origin were prepared from freshly drawn blood, which was let to clot at room temperature for 10-30 min, followed by centrifugation and collection of the supernatant. The serum was then stored at −80° C. until use. Zymosan (final concentration: 1.3 mg/ml) was prepared by suspending it at 2% in 0.15 M sodium chloride, boiling in a water bath for one hour, then centrifuged for 30 minutes at 4000 rpm. The supernatant was discarded and the residue suspended evenly in 0.15 M sodium chloride to 2%. • HAGG was diluted 100-fold (to a final concentration: 0.5 mg/mL). • 10 μL Zymosan (20 mg/ml) or HAGG were incubated for 1 h at 37° C. with a mixture of 20 μL animal serum, and 20 μl C3depl-NHS 100 μl PBS. The reaction was stopped by the addition of the 10 μl stop solution, and 100 μL of a 1:1600 dilution from the mixtures were applied to the wells of the SC5b-9 ELISA plates to measure the formation of SC5b-9 as specified by the manufacturer.
Materials and Methods • Dog blood was obtained from WellPet Animal Clinic (Kecskemét, Géza Fejedelem körút 51. Hungary). Serum was prepared by letting the blood clot at 4° C. for about 10 min (dog blood clots rapidly), followed by centrifugation and collection of supernatant serum. […]

| Molecule | human C3a in the reaction mixture (Quidel's C3a kit) [1] | time to consume essentially all C3 [1] [min] | C3 consumed ([1]; within 30 min) | rise of SC5b-9 over PBS control [2] [fold] |
| --- | --- | --- | --- | --- |
| CVF | elevated | ≤ 30 | essentially all C3 | – |
| CCCCCCCC/C=C\CCCCCCCC(=O)OCCOCC(OCCO)C1OCC(OCCO)C1OCCO (stereo not shown) [Tween 80] | – | – | – | ~30 |

— patent US10254288B2, “Method for species-independent measurement of complement activation in animals” (Quidel Corporation, priority 2013, dated 2019)
